Reference: PubChem BioAssay (NCI)
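In this assay, cells in 96-well plates receive the compound at five concentrations for 48 hours. Endpoints are linearly interpolated between the surrounding concentrations. At the GI50, growth is halved. The concentration for full growth arrest is given as TGI.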

Tests used:
Test in all cases: NCI-60 cell line screen, 48 h
SR leukemia = system: SR leukemia
HL-60(TB) leukemia = system: HL-60(TB) leukemia
K-562 leukemia = system: K-562 leukemia
SF-539 CNS = system: SF-539 CNS
HCC-2998 colon = system: HCC-2998 colon
SF-295 CNS = system: SF-295 CNS
LOX IMVI melanoma = system: LOX IMVI melanoma
MDA-N = system: MDA-N
OVCAR-8 ovarian = system: OVCAR-8 ovarian
KM12 colon = system: KM12 colon

SMILES | TGI (SR leukemia) [µM] | TGI (HL-60(TB) leukemia) [µM] | TGI (K-562 leukemia) [µM] | TGI (SF-539 CNS) [µM] | TGI (HCC-2998 colon) [µM] | TGI (SF-295 CNS) [µM] | TGI (LOX IMVI melanoma) [µM] | TGI (MDA-N) [µM] | TGI (OVCAR-8 ovarian) [µM] | TGI (KM12 colon) [µM] | GI50 (SR leukemia) [µM] | GI50 (K-562 leukemia) [µM] | GI50 (SF-539 CNS) [µM] | GI50 (HCC-2998 colon) [µM] | GI50 (SF-295 CNS) [µM] | GI50 (LOX IMVI melanoma) [µM] | GI50 (MDA-N) [µM] | GI50 (OVCAR-8 ovarian) [µM] | GI50 (KM12 colon) [µM]
CCOC(=O)C1(Cc2ccccc2)CCN(C(=O)c2ccccc2)C2C1C2(Cl)Cl (configuration not stated) | 69.7 | 32.6 | > 100 | 38.5 | 30.5 | 77.2 | 34.5 | 39.6 | 77.4 | 94.9 |  |  |  |  |  |  |  |  | 
CCOC(=O)CC[C@@H](NC(=O)c1ccc(NCc2ccc3nc(OC)c(OC)nc3c2)cc1)C(=O)OCC | > 87.4 | > 100 | > 100 | 45.8 | > 100 | > 100 | > 100 | > 85.2 | > 100 | > 100 |  |  |  |  |  |  |  |  | 
COc1ccc(CN=C2Nc3ccncc3S(=O)(=O)N2c2ccccc2)cc1 | 73.3 | 36.8 | 93.2 | 33.9 | 54.9 | > 100 | > 100 | > 100 | > 100 | > 100 |  |  |  |  |  |  |  |  | 
C(/C=N/NC1=NCCN1)=N\NC1=NCCN1 | > 100 | 34.2 | 31.6 | > 100 | > 100 | > 100 | > 100 | > 100 | > 100 | > 100 |  |  |  |  |  |  |  |  | 
C/C(=N/NC(=S)N(Cc1ccccn1)Cc1ccccn1)c1cnccn1 | > 55.2 | > 68.2 | > 100 |  | > 43.4 | 9.37 | 0.447 | 31.2 |  | 19.7 |  |  |  |  |  |  |  |  | 
C=C(Br)C(Cl)(CBr)CCC(Br)C(C)(C)Cl (configuration not stated) | > 10 | > 10 | > 10 | > 10 | > 10 | > 10 |  | > 10 | > 10 | > 10 |  |  |  |  |  |  |  |  | 
C=C1CC(CNc2cc(Cl)nc(N)n2)C1 | > 100 | > 100 | > 100 | > 100 | > 100 | > 100 | > 100 | > 100 | > 100 | > 100 |  |  |  |  |  |  |  |  | 
COc1cc(/C=C/C(=O)O)ccc1O | > 100 | > 100 | > 100 | > 100 | > 100 | > 100 | > 100 | > 100 | > 100 | > 100 |  |  |  |  |  |  |  |  | 
C=CCOc1ccc(C2c3c([nH][nH]c3=O)CC(C)(O)C2C(=O)OC)cc1OC (configuration not stated) | > 100 | > 100 |  | > 100 | > 100 | > 100 | > 100 | > 100 | > 100 | > 100 |  |  |  |  |  |  |  |  | 
CC1(C)SC2C(NC(=O)Cc3ccccc3)C(=O)N2C1C(=O)O (configuration not stated) | > 100 | > 100 | > 100 | > 100 |  | > 100 | > 100 | > 100 | > 100 | > 100 |  |  |  |  |  |  |  |  | 
COc1cccc2c1C(=O)c1ccc3cc(CO)cc(O)c3c1C2=O | 1.31 | 0.461 | 3.74 | 1.44 |  | 7.44 | 5.96 | 0.352 | 2.22 | 6.14 |  |  |  |  |  |  |  |  | 
CCOP(=O)(OCC)C(Cc1ccccc1)N=C(c1ccccc1)c1ccccc1 (configuration not stated) | > 100 | > 100 | 41.9 |  |  | 25.8 | 24.7 | 29.1 | 33.8 | 32.2 |  |  |  |  |  |  |  |  | 
CC1C=C(NCC2(CO)CCC2)NC(N)=N1 (configuration not stated) | > 100 | > 100 | > 100 |  | > 100 | > 100 | > 100 | > 100 | > 100 | > 100 |  |  |  |  |  |  |  |  | 
Cc1ccc(NNc2cc(=O)[nH]c(=O)[nH]2)cc1Cl | > 100 | 18.3 | > 100 | 69.4 | 29.8 | > 100 | 18.4 | 28.6 |  | > 100 |  |  |  |  |  |  |  |  | 
O=C(/C(Cl)=C/c1ccccc1)c1ccccc1 | 6.47 |  | > 26 | 13.1 | 12.9 | 37.6 | 8.8 | 4.52 | 17.1 | 14.9 |  |  |  |  |  |  |  |  | 
COc1cc2cnc3c(c2cc1OC)Cc1cc2c(cc1-3)OCO2 | 0.0145 |  | > 100 | 31.8 | 0.0562 | > 37.6 | > 100 | > 100 | > 100 | > 100 | < 0.01 | < 0.01 | < 0.0132 | < 0.01 | < 0.01 | 0.576 | > 100 | 0.0527 | < 0.01
